“Also recorded” adds a separate entry of the source. Read-outs that look alike come from different tables or passages of the source.
Key:
C4-2 = assay: effect of MHI-25 on C4-2 cells in culture (FIG. 9 top); assay type: cell-based, human; settings: for cell death in culture: 24 hrs
Source text: To confirm the ability of other compounds to exert cytotoxicity against the growth of human tumors in vitro and in vivo, the effect of MHI-25 on the growth of C4-2 tumors in vitro (FIG. 9 top panel) and in mice (FIG. 9 bottom panel) was studied.

C4-2 tumors = assay: effect of MHI-25 on pre-established C4-2 tumors in mice (FIG. 9 bottom); assay type: in vivo, mouse; settings: 100 nmols, Day 5 after administration
SN12C, ACHN = assay: uptake of IR783 in cell lines: renal; assay type: cell-based, human
Source text: (§1) The uptake of IR783 was studied and confirmed in a variety of human cell lines as shown below: […]

RT-4, T24, 253J, TCC = assay: uptake of IR783 in cell lines: bladder; assay type: cell-based, human
Source text: as §1

HEK293 = assay: uptake of IR783 in cell lines: human embryonic kidney epithelial normal cells; assay type: cell-based
Source text: as §1

[1] = test system: ARCaPM, LNCaP, ARCaPE, C4-2, PC-3; assay: uptake of IR783 in cell lines: prostate; assay type: cell-based, human
Source text: as §1

HepG2 = assay: uptake of IR783 in cell lines: liver; assay type: cell-based, human
Source text: as §1

MCF-7 = assay: uptake of IR783 in cell lines: breast; assay type: cell-based, human
Source text: as §1

RCC = assay: uptake of IR783 in cell lines: kidney; assay type: cell-based, human
Source text: as §1

HeLa = assay: uptake of IR783 in cell lines: cervical; assay type: cell-based, human
Source text: as §1

H358 = assay: uptake of IR783 in cell lines: lung; assay type: cell-based, human
Source text: as §1

K562 = assay: uptake of IR783 in cell lines: leukemia; assay type: cell-based, human
Source text: as §1

P69 = assay: uptake of IR783 in cell lines: human prostate epithelia; assay type: cell-based
Source text: as §1

NPF = assay: uptake of IR783 in cell lines: prostate fibroblasts; assay type: cell-based, human
Source text: as §1

HaCaT = assay: uptake of IR783 in cell lines: skin; assay type: cell-based, human
Source text: as §1

BMC = assay: uptake of IR783 in cell lines: bone marrow stroma; assay type: cell-based, human
Source text: as §1

[2] = test system: ARCaPM prostate cancer cells and P69 normal prostate epithelial cells; assay: confocal fluorescence imaging of IR783 uptake, cancer versus normal cells (FIG. 14); assay type: cell-based, human
Procedure: After being washed in PBS to remove free dyes, the cells were subject to confocal fluorescence imaging. DAPI, added together with IR783, was used as a positive control for the staining of the cell nucleus. P69, representing normal human prostate epithelial cells, was stained in parallel. Images were acquired by Zeiss LSM 510 META confocal microscopy. […] 100 μM BSP was used to pre-incubate with ARCaPM, before 50 μM IR783 was added.

ARCaPM and PC3 tumors = assay: IR783 imaging of pre-established tumors in live mice, 5 nmol tail vein (FIG. 18); assay type: in vivo, mouse
Source text: Intratibial ARCaPM tumors were also established in live mice prior to administration of IR783. 5 nmol of IR783 was given through the tail vein and imaged using a Kodak multimodal imaging system.
Subcutaneous ARCaPM and PC3 (four tumors with different sizes) tumors were established in live mice prior to the administration of IR-783. 5 nmol of IR783 were given to mice through tail vein and imaged using Kodak multimodal-imaging system.

[3] = test system: spontaneous prostate tumor in a TRAMP mouse; assay: imaging of spontaneous TRAMP prostate tumor, fresh and after fixation (FIG. 16B, C); assay type: in vivo
Procedure: NIR imaging studies were performed to assess pharmacokinetics of the IR783 in vivo. […] This mouse was injected i.p with 0.2 μg/kg IR783 at 0 hrs. […] The dye retention in formalin fixed tissues can be as long as several weeks (data not shown).

[4] = test system: human prostate cancer cells PC3 and ARCaPM in whole blood; assay: NIR detection of cancer cells spiked into human blood with IR783 (FIG. 17); assay type: cell-based
Procedure: IR783 can be used to detect and enrich disseminating cancer cells in the blood (FIG. 17). […] 5×10^3 human prostate cancer cells PC3 and ARCaPM were used to spike a 0.5 ml heparinized whole blood from a healthy donor. After incubation at 37° C. for 30 minutes, a gradient centrifugation (Histopaque-1077, Sigma) was applied to remove red blood cells. The remaining cells were washed 5 times in PBS, cells in 50 μl of the 250 μl total volume were smeared on a glass slide for NIR fluorescence detection. […] This method can detect as few as 10 human prostate cancer cells/ml of human blood, a concentration close to that of the estimated numbers of CTC as reported by previous investigators.

[5] = Procedure: Mice were injected with 20 μg/Kg of IR783 and IR780 (which was 100× of the imaging dose which was 0.2 μg/Kg) and results were compared for a 28 day period. […] Zero grams means the mouse died. ICG is a FDA approved dye used for several diagnostic purposes. ICG is considered to be nontoxic. ICG is used here as a measure of the toxicity of the tested compounds.
Toxicity test of dye based on body weight gained during the treatment period from 0 to 14 days.

## CC1(C)C(=CC=C2CCCC(C=CC3=[N+](CCCCS(=O)(=O)[O-])c4ccccc4C3(C)C)=C2Cl)N(CCCCS(=O)(=O)[O-])c2ccccc21.[Na+] [IR783]
C4-2; 10 uM
  cell death in culture: did not induce cell death
C4-2; 100 uM
  cell death in culture: induced a significant cell death
C4-2; 100 μM, exposure 24 hrs
  apoptosis: clearly induced apoptosis
C4-2 tumors
  effect on pre-established tumors: induced marked cell death, with tumors almost eliminated at Day 5
SN12C, ACHN
  Uptake: Strong
RT-4, T24, 253J, TCC
  Uptake: Strong
HEK293
  Uptake: Low
[1]
  Uptake: Strong
HepG2
  Uptake: Strong
MCF-7
  Uptake: Strong
RCC
  Uptake: Strong
HeLa
  Uptake: Strong
H358
  Uptake: Strong
K562
  Uptake: Strong
P69
  Uptake: Very low
NPF
  Uptake: Very low
HaCaT
  Uptake: Very low
BMC
  Uptake: Very low
[2]; 0° C., data not shown
  uptake by cancer cells at 0° C.: no uptake
[2]; 50 μM, 37° C., 30 min
  uptake, ARCaPM compared with P69: only in the cancer cells
[2]; 100 μM BSP pre-incubation, 50 μM IR783
  effect of BSP on uptake by ARCaPM cells: inhibited by BSP; also recorded: completely abolished
[2]; ARCaPM, FIG. 14
  time dependence of uptake: time-dependent fashion
[2]; ARCaPM, data not shown
  dose dependence of uptake: dose-dependent fashion
ARCaPM and PC3 tumors; intratibial ARCaPM tumors, data not shown
  tumor images: Clear tumor images were detected
ARCaPM and PC3 tumors; subcutaneous ARCaPM and PC3 tumors
  tumor images: clear tumor images can be detected
[3]; 24 hours after administration
  imaging of spontaneous prostate tumor: could be imaged
[3]; data not shown
  dye retention in formalin fixed tissues: several weeks
[3]; mouse, in vivo
  tolerance of dye accumulation in tumors to fixation: can tolerate fixation with both paraformaldehyde and glutaraldehyde
[4]
  lowest number of cancer cells detected: 10 human prostate cancer cells/ml of human blood
[4]; 37° C., 30 minutes
  fluorescence of normal periphery mononucleated cells: very low to background NIR fluorescence
[4]; 37° C., 30 minutes, whole blood of a healthy donor
  fluorescence of cancer cells: strong fluorescence signals in the cytoplasm
[5]; 20 μg/Kg (100× of the imaging dose), 28 day period
  toxicity: not toxic
[5]; dose 1X (imaging dose 0.2 μg/Kg), 0 day
  body weight: 20.29 g
[5]; dose 1X, 1 day
  body weight: 20.20 g
[5]; dose 1X, 2 day
  body weight: 20.23 g
[5]; dose 1X, 3 day
  body weight: 20.32 g
[5]; dose 1X, 4 day
  body weight: 20.34 g
[5]; dose 1X, 5 day
  body weight: 21.00 g
[5]; dose 1X, 6 day
  body weight: 21.87 g
[5]; dose 1X, 7 day
  body weight: 22.32 g
[5]; dose 1X, 14 day
  body weight: 23.91 g
[5]; dose 1X, 28 day
  body weight: 24.86 g
[5]; dose 10X, 0 day
  body weight: 20.57 g
[5]; dose 10X, 1 day
  body weight: 20.61 g
[5]; dose 10X, 2 day
  body weight: 20.59 g
[5]; dose 10X, 3 day
  body weight: 20.98 g
[5]; dose 10X, 4 day
  body weight: 21.02 g
[5]; dose 10X, 5 day
  body weight: 21.34 g
[5]; dose 10X, 6 day
  body weight: 21.76 g
[5]; dose 10X, 7 day
  body weight: 22.54 g
[5]; dose 10X, 14 day
  body weight: 24.01 g
[5]; dose 10X, 28 day
  body weight: 24.87 g
[5]; dose 100X (20 μg/Kg), 0 day
  body weight: 19.85 g
[5]; dose 100X, 1 day, zero grams means the mouse died
  body weight: 19.74 g
[5]; dose 100X, 2 day, zero grams means the mouse died
  body weight: 20.01 g
[5]; dose 100X, 3 day, zero grams means the mouse died
  body weight: 20.39 g
[5]; dose 100X, 4 day, zero grams means the mouse died
  body weight: 20.43 g
[5]; dose 100X, 5 day, zero grams means the mouse died
  body weight: 21.01 g
[5]; dose 100X, 6 day, zero grams means the mouse died
  body weight: 21.23 g
[5]; dose 100X, 7 day, zero grams means the mouse died
  body weight: 22.00 g
[5]; dose 100X, 14 day, zero grams means the mouse died
  body weight: 23.76 g
[5]; dose 100X, 28 day, zero grams means the mouse died
  body weight: 24.61 g

From US11738095B2, “Cyanine-containing compounds for cancer imaging and treatment” (Emory University, priority 2007, dated 2023)
